Consider 23 molecules from ChEMBL document CHEMBL1833795, “Discovery of potent, metabolically stable purine CRF-1 antagonists with differentiated binding kinetic profiles” (Bioorg Med Chem Lett, 2011).

Data set [1] addresses T1, Corticotropin-releasing factor receptor 1 (Homo sapiens, UniProt P34998).
T1 sequence (P34998 whole entry): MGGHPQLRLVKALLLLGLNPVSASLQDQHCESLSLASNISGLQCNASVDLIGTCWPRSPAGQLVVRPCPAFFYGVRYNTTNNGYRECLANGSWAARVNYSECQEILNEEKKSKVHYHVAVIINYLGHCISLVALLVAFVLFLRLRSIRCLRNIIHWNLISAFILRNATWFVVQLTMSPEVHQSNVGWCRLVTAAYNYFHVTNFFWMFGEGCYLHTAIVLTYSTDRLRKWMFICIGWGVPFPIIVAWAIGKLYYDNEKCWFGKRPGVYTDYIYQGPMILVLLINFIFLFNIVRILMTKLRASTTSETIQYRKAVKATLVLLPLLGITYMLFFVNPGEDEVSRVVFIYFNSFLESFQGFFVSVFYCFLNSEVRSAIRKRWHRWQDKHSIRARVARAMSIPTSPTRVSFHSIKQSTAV
The data set is described as follows: Antagonist activity at recombinant human CRF1 receptor expressed in CHO cells assessed as inhibition of CRF-induced cAMP formation. In kind it is functional, cell-based. (Changes in cAMP serve as a functional read-out for many G protein-coupled receptors.)

Data set [2] deals with T2, Corticotropin-releasing factor receptor 1 (Homo sapiens) (UniProt P34998).
T2 sequence (whole entry): T1 sequence (P34998 whole entry)
As to conditions: CHO.
Description: Antagonist activity at recombinant human CRF1 receptor expressed in CHO cells assessed as dissociation half life

For data set [3], the target named is T1, Corticotropin-releasing factor receptor 1. The data set can be described thus: Binding affinity to recombinant human CRF1 receptor expressed in CHO cells. In kind it is cell-based.
Data set [4] concerns Liver microsomes. The data set is described as follows: Intrinsic clearance in rat liver microsomes assessed per mg of protein. In kind it is ADME, Microsome. A general note: Microsomes from liver hold many membrane-bound enzymes, among them those of drug oxidation.
Data set [5] is described as follows: Half life in rat at 0.1 mg/kg. In kind it is ADME, organism-based. Further details: dose 0.1 mg/kg. The conditions noted are these: in vivo.
A short description of data set [6]: Volume of distribution at steady state in rat at 0.1 mg/kg. In kind it is ADME, organism-based. Further details: dose 0.1 mg/kg. As to conditions: in vivo, read-out: Vdss.
Data set [7] deals with Liver microsomes. The data set can be described thus: Intrinsic clearance in human liver microsomes assessed per mg of protein. In kind it is ADME, Microsome.
Data set [8] can be described thus: Clearance in rat at 0.1 mg/kg. In kind it is ADME, organism-based. Further details: dose 0.1 mg/kg. The conditions noted are these: in vivo.
Data set [9] can be described thus: Oral bioavailability in rat at 8 mg/kg. In kind it is ADME, organism-based. As to conditions: in vivo.

Bounds are passed on as bounds.

As a reminder, the Ki is the dissociation constant of the complex between target and ligand, obtained from inhibition or displacement. As a reminder, the Kd is the equilibrium constant for the complex coming apart. The term half-life denotes the time in which the quantity being followed falls by half. For orientation: bioavailability means dose-corrected exposure relative to a reference, in per cent. Lower therefore signals little systemic uptake.

Take `Cc1nc(NC(C2CC2)C2CC2)c2nc(C)n(-c3ccc(OC(F)F)cc3F)c2n1`: in data set [1], the Ki was 7 nM.

In turn, `CCCN(CCC)c1cc(C)nc2c(-c3cnc(N(C)C)cc3C)c(C)nn12` yielded a T1/2 in data set [2] of 12.8 h.

Regarding `Cc1nc(NC(C2CC2)C2CC2)c2nc(C)n(-c3ccc(OC(F)F)cc3)c2n1`, the Kd in [3] came to 3 nM. For the same molecule, the clearance in the data set on Liver microsomes [4] was 17 µL/min/mg; with Liver microsomes [7], 15 µL/min/mg; in data set [8] it was 3 mL/min/kg. Also, the T1/2 in [2] worked out at 1 h. Moreover, the Ki in [1] came out at 5 nM. Further, the half-life in data set [5] was 11 h. Moreover, in [6], the Vd is 2 L/kg.

`COc1ccc(-n2c(C)nc3c(NC(C4CC4)C4CC4)nc(C)nc32)c(Cl)c1`: the Ki in data set [1] was determined as 12 nM.

With `COCc1nc2c(NC(C3CC3)C3CC3)nc(C)nc2n1-c1ccc(OC)cc1`, in [1], the Ki was 157 nM.

In the case of `COc1ccc(-n2c(C3CCCO3)nc3c(NC(C4CC4)C4CC4)nc(C)nc32)cc1` (racemic), the Ki in data set [1] amounted to 867 nM.

In the case of `COc1ccc(-n2c(CC(C)C)nc3c(NC(C4CC4)C4CC4)nc(C)nc32)cc1`, the Ki in data set [1] worked out at 607 nM.

As to `Cc1nc(NC(C2CC2)C2CC2)c2nc(C)n(-c3ccc(OC(F)(F)F)cc3)c2n1`, the results for the clearance in the data set with Liver microsomes [4] and in the data set with Liver microsomes [7] were 27 µL/min/mg and 17 µL/min/mg, respectively. Further, in data set [1], the Ki was found to be 9 nM.

In the case of `Cc1nc(NC(C2CC2)C2CC2)c2nc(C)n(-c3ccc(F)cc3)c2n1`, the clearance in the data set on Liver microsomes [4] was under 8.5 µL/min/mg; in the data set with Liver microsomes [7], 15 µL/min/mg. Besides, the Ki in data set [1] was 91 nM.

Turning to `Cc1nc(NC(C2CC2)C2CC2)c2nc(C)n(-c3ccc(S(C)(=O)=O)cc3)c2n1`, in data set [1], the Ki was 140 nM. Besides, the clearance in the data set with Liver microsomes [7] is under 9 µL/min/mg.

On to `CCOc1ccc(-n2c(C)nc3c(NC(C4CC4)C4CC4)nc(C)nc32)cc1`, for which the clearance with Liver microsomes [4] amounted to 29 µL/min/mg; with Liver microsomes [7], 16 µL/min/mg. The Ki in data set [1] is 20 nM.

Consider `COc1ccc(-n2c(C)nc3c(NC(C4CC4)C4CC4)nc(C)nc32)cc1`, for which the Kd in [3] amounted to 12 nM. For the same molecule, the clearance was 20 µL/min/mg with Liver microsomes [4], under 10 µL/min/mg with Liver microsomes [7] and 4 mL/min/kg in [8]. Besides, the T1/2 in [2] was 0.5 h. For the same molecule, the Ki in [1] came to 19 nM. The same molecule gave a half-life in data set [5] of 2.7 h. In data set [6], the Vd is 2 L/kg.

Regarding `COc1ccc(-n2c(C)nc3c(NC(C4CC4)C4CC4)nc(C)nc32)c(C)c1`, the values for the clearance in the data set with Liver microsomes [4] and with Liver microsomes [7] were 37 µL/min/mg and 10 µL/min/mg, respectively. The Ki in data set [1] worked out at 14 nM.

Take `COc1ccc(-n2c(CC3CC3)nc3c(NC(C4CC4)C4CC4)nc(C)nc32)cc1`: the Ki in data set [1] amounted to 308 nM.

In the case of `COc1ccc(-n2c(C3CC(F)(F)C3)nc3c(NC(C4CC4)C4CC4)nc(C)nc32)cc1`, the Ki in data set [1] is 261 nM.

Turning to `COc1ccc(-n2ncc3c(NC(C4CC4)C4CC4)nc(C)nc32)c(C)c1`, the clearance with Liver microsomes [4] was 25 µL/min/mg; with Liver microsomes [7], under 11 µL/min/mg. In data set [1], the Ki worked out at 32 nM.

As for `Cc1nc(NC(C2CC2)C2CC2)c2nc(C)n(-c3ccc(Cl)cc3)c2n1`, the values for the clearance in the data set on Liver microsomes [4] and with Liver microsomes [7] were under 8.5 µL/min/mg and 28 µL/min/mg, respectively. Besides, the Ki in data set [1] worked out at 11 nM.

Turning to `COc1cc(OC(F)F)ccc1-n1c(C)nc2c(NC(C3CC3)C3CC3)nc(C)nc21`, the Kd in data set [3] came out at 0.291 nM. The clearance in the data set with Liver microsomes [4] worked out at 38 µL/min/mg; in the data set on Liver microsomes [7], 19 µL/min/mg; in [8] it was 9 mL/min/kg. The molecule also had a T1/2 in data set [2] of 10.7 h. Moreover, the Ki in data set [1] was 0.291 nM. The molecule also showed a half-life in data set [5] of 10 h. Further, in [6], the Vd was 8.2 L/kg. Moreover, the bioavailability in data set [9] came out at 52%.

For `Cc1nc(NC(C2CC2)C2CC2)c2nc(C)n(-c3ccc(OC(F)F)cc3Cl)c2n1`, the Kd in [3] was found to be 0.373 nM. The clearance with Liver microsomes [4] came out at 51 µL/min/mg; with Liver microsomes [7], 18 µL/min/mg; in [8] it was 8 mL/min/kg. The same molecule gave a T1/2 in data set [2] of 6.2 h. In addition, the Ki in data set [1] came to 0.373 nM. In [5], this molecule showed a half-life of 6.4 h. Also, in data set [6], the Vd was determined as 4.5 L/kg.

Turning to `CCCN(CCOC)c1nc(C)nc2c1c(C)nn2-c1ccc(OC)cc1C`, in data set [3], the Kd came out at 14 nM. In addition, the clearance came out at 23 µL/min/mg with Liver microsomes [4] and 172 µL/min/mg in the data set on Liver microsomes [7]. Moreover, in data set [2], the T1/2 came to 0.3 h.

As for `COc1ccc(-n2cnc3c(NC(C4CC4)C4CC4)nc(C)nc32)c(C)c1`, the figures for the clearance with Liver microsomes [4] and in the data set with Liver microsomes [7] were 48 µL/min/mg and 21 µL/min/mg, respectively. Also, in [1], the Ki amounted to 47 nM.

With `Cc1nc(NC(C2CC2)C2CC2)c2nc(C)n(-c3ccc(C#N)cc3)c2n1`, the clearance in the data set with Liver microsomes [4] amounted to 22 µL/min/mg; in the data set with Liver microsomes [7] it was 16 µL/min/mg. Besides, the inhibition constant Ki in data set [1] is 62 nM.

Take `CCC(CC)Nc1cc(C)nc2c(-c3ccc(OC)cc3C)c(C)nn12`: in data set [3], the Kd turned out to be 0.279 nM. Also, in data set [2], the T1/2 was determined as 5.5 h. Further, the Ki in data set [1] came to 1.5 nM.
